What is called IC50 is the concentration at which inhibition is half-maximal.

Read-outs that look alike come from different tables or passages of the source.

For two compounds, IC50 results are on record in article PMC6416898, “Prediction of Toxoplasma gondii virulence factor ROP18 competitive inhibitors by virtual screening” (Parasites & Vectors, 2019).

The assay has as its target T1, ROP18 (187–554 aa) kinase domain (Toxoplasma gondii, UniProt Q2PAY2).
T1 construct: kinase domain 187-554 of ROP18; His6-GST-MBP-Gb1 fusion from plasmid pETDL4.0-ROP18, E. coli Rosetta 2, amylose beads; 4JRN is the docking structure (187-554), not solved here
Put plainly: HTRF KinEASE kinase assay with biotinylated peptide substrate. Type of assay: biochemical.

T1 sequence (Q2PAY2 187-554): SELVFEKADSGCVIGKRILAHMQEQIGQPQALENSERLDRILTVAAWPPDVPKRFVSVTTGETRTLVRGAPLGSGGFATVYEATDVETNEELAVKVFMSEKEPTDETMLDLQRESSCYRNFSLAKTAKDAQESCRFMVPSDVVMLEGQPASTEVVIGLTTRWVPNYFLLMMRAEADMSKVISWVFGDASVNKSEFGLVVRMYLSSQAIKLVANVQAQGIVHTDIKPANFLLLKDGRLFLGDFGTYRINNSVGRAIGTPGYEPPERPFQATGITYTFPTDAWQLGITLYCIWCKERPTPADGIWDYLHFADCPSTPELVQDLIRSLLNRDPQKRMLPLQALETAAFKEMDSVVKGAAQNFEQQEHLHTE

As for `C=CCN1C(=O)NC(=O)/C(=C/c2cc(Br)c(OCC(=O)O)c(OC)c2)C1=O` [compound 1], the midpoint of inhibition, the IC50, lay at 220 nM. With `O=C(O)CCCCCN1C(=O)c2c(Br)c(Br)c(Br)c(Br)c2C1=O` [compound 11, AK-918/11642046], the IC50 (read-out: IC50) came to 41 nM.
